Measured values: patent publication US20250163057A1, “DCN-1 MODULATING COMPOUNDS AND METHODS OF USE THEREOF” (Cellarity, Inc., priority 2023, published 2025)

Key:
[1] = tested on: HBG1 mRNA and HbF protein in bone marrow cells; assay: Induction of fetal hemoglobin by hydroxyurea and I-73 in human CD34+ cell reconstituted immunodeficient mice, with analysis of synergistic effect; type: in vivo, NBSGW mice engrafted with human CD34+ cells
Protocol: The model employed for assessment of induction of fetal hemoglobin by I-73 and hydroxyurea involved the use of human stem cell-reconstituted immunodeficient mice. Specifically, three hundred thousand human CD34-positive cells from G-CSF-mobilized human peripheral blood […] (PBMCs) were injected into the tail veins of NOD.Cg-KitW-41J Tyr+Prkdcscid Il2rgtm1Wjl/ThomJ (NBSGW) mice (JAX Strain No. 026622) on day 0. Twelve weeks later, mice were checked for human cell engraftment by sampling PBMCs from blood taken from the tail vein and staining for expression of murine or human CD45 by flow cytometry. After removing from the study those mice having greater than 10% human cells or less than 1% human cells in their peripheral blood, the remaining mice were randomized into treatment groups based on the human cell percentage. Thirteen weeks post engraftment, treatment was initiated with either hydroxyurea, I-73, or a combination of both compounds. Hydroxyurea was formulated in PBS (pH 7.4) and I-73 was formulated in 5% Cremophor RH 40/20% hydroxypropyl-β-cyclodextrin (Crem-CD) daily. Mice received either PBS or hydroxyurea each morning and I-73 or Crem-CD each afternoon by oral gavage. After twenty days of daily treatment, the mice were euthanized and their bone marrow (femurs, tibia and critae) were individually collected for subsequent analysis.
Bone marrow cell pellets (total 500K cells) were lysed in 20 μL of RLT (QIAGEN, 79216) with 1×β-mercaptoethanol (Gibco, 21985-023) and H2O followed by hybridizations. Hybridizations were done in a total volume of 15 μL [3 μL of RNA lysate added to master mix of 12 μL probe A/B (purchased from IDT), capture probe/reporter probes (NanoString™, XT TagSet-24, 121000602), proteinase K (Fisher Scientific, E00491) and H2O suspended in hybridization buffer]. Samples were hybridized at 65° C. for 22 hr. Following hybridization, the tripartide complexes were purified, immobilized by nCounter Prep Station and imaged by Digital Analyzer (nCounter MAX/FLEX Analysis System), to generate digital counts of barcodes corresponding to each target in the multiplexed reaction. Labeled barcodes obtained from unamplified extracts were counted at 555 images or field of view (FOV). The barcode counts for each sample were recorded in Reporter Code Count (RCC) files that are imported into nSolver analysis software (provided with CodeSet by NS) for quality control evaluation.
To assess levels of fetal hemoglobin by AlphaLISA, cells (200 k bone marrow cells/well) were lysed by resuspending pellets in 200 μL of lysis buffer plus protease inhibitor cocktail (100×), mixed well and incubating at room temperature for 30 minutes on the plate shaker @300 RPMs. Samples were then diluted 1:10 in a new 96-well round bottom plate by taking 10 uL of lysate and adding 90 μL of AlphaLISA immunoassay buffer. To create the “reaction plate”, 20 μL of Acceptor Beads (50 ug/mL final concentration) was added to each well using a multi-channel pipet. 10 uL of diluted cell lysate was added to the wells and mixed well. 20 μL of AlphaLISA immunoassay buffer was added to each well. Biotinylated antibody (final concentration) was then added to each well. The reaction plate on then placed on a plate shaker at 300 rpm for one hour to incubate at room temperature. After the first incubation was complete, 50 μL of Donor Beads ([…] final concentration) was added to each well and mixed well, keeping the plate in the dark. The covered plate was placed on a shaker at 350 rpm for 30 minutes to incubate at room temperature. After incubation, all 100 uL in each to an AlphaPlate in the dark. Plates were read on a VictorNIVO using the “Alpha 96 Well” setting. Alpha reading was programmed as the default setting with emission at 700 ms and 575/110n. […]

[2] = tested on: fetal hemoglobin protein (HbF) in human erythroid progenitor cells; assay: Humanized mouse model: HbF protein in bone marrow by AlphaLISA; type: in vivo, NBSGW mice reconstituted with human CD34+ cells; conditions: humanized mouse model, human erythroid progenitor cells, dose not given at this place
From the text: (§1) Results: To evaluate induction of target cell activity in the bone marrow, a humanized mouse model was developed. This model entails the reconstitution of human hematopoietic progenitor cells within the bone marrow of immunodeficient nonirradiated NOD.Cg-KitW-41J Tyr^+ Prkdc^scid Il2rg^tmlwjl/ThomJ (NBSGW) strain recipient mice. These mice are competent to engraft and differentiate human erythroid progenitor cells that express human adult hemoglobin mRNA and protein subunits within bone marrow.
(§2) Based on these exposure results, humanized mice were treated with either the clinical standard of care compound, hydroxyurea (50 mg/kg; bid), or I-73, at 25 and 100 mg/kg (bid), by oral gavage over a three-week period. At the end of the treatment period, bone marrow was harvested for flow cytometry, as well as for assessment of HbF protein and fetal hemoglobin (HBG1) mRNA levels. Levels of both HbF protein and HBG1 mRNA were normalized to the percentage of human erythroid progenitor cells in the bone marrow of each mouse as determined by immunofluorescence staining for human Glycophorin A cell membrane expression. […] In addition, relative levels of fetal hemoglobin to those of potentially sickling-prone adult hemoglobin (HBB) was assessed.
(§3) Female, 6-week-old NOD.Cg-Kit^W-41J Tyr^+ Prkdc^scid Il2rg^tm1Wjl/ThomJ (NBSGW) mice (Jackson Laboratory strain #[…]) were used for these studies. The mice were acclimatized to laboratory conditions for 5 days prior to inoculation.
(§4) GCSF-mobilized human CD34+ cells were removed from liquid nitrogen storage, thawed in a 37° C. water bath and transferred quickly into a 50 mL conical tube. Cryovial was rinsed once with thaw buffer, 0.1% BSA in phosphate buffered saline (PBS), and buffer was transferred and combined with the original contents in the 50 mL conical tube. Next, doubling volumes of thaw buffer was added to the conical and gently swirled for ˜30 seconds to one minute until the volume in the conical was 32 mL. Cells and buffer were centrifuged at 300G for 8 minutes, and the supernatants were aspirated. Cells were counted by resuspending in 1 mL of thawing buffer per million of cells to a target concentration range of 0.5 to 2M/ml and counting with AOPI (1:1) on a luna cell counter to confirm the concentration of cells/mL. The cell concentration was adjusted to 3×10^6 cells/ml. For each mouse, 300 thousand cells in 0.1 ml were injected into the tail vein with a 25-gauge needle.
(§5) On day 56 after human cell adoptive transfer, whole blood was collected from each mouse by submandibular bleed and a 100 μL sample of EDTA whole blood was transferred to a 2 ml tube containing 1.8 mL ACK Lysing Buffer at room temperature (RT), and then inverted to mix. Samples were incubated at RT for 15 min in the dark to lyse. After lysis, samples are centrifuged at 500×g for 5 minutes at RT to enable supernatant decanting. Remaining cells were washed with 1 mL of PBS-0.5% BSA and centrifuged at 500×g for 5 minutes at 4° C. Supernatant was decanted and cells were stained with leukocyte markers (human and mouse CD45 antibodies; BD347464, BD557659) to confirm human cell engraftment. Mice having less than one percent, or greater than ten percent, human CD45 positive cells were excluded from the subsequent study. Remaining mice were then randomized into treatment groups based on percentage of human cell engraftment. Each treatment group included 10-11 mice.
(§6) Compound I-73 was dissolved in a 5% Cremophor RH40, 20% hydroxylpropyl-β-cyclodextrin solution. Hydroxyurea was solubilized in PBS. Formulations were prepared fresh daily. Commencing on day 84 post human cell engraftment, mice were treated by oral gavage with either I-73, hydroxyurea or their respective vehicles, for a period of three weeks using either once daily (QD) or twice daily (BID) dosing regimens. Mice were monitored daily for body weight and condition. […]

[3] = tested on: fetal hemoglobin gene expression (HBG1) in human erythroid progenitor cells; assay: Humanized mouse model: fetal hemoglobin mRNA (HBG1, HBB) in bone marrow by Nanostring; type: in vivo, NBSGW mice reconstituted with human CD34+ cells; conditions: humanized mouse model, human erythroid progenitor cells, dose not given at this place
From the text: as §1, §2, §3, §4, §5, §6

With `NC(=O)NO` [hydroxyurea] the “average increase of HbF % over vehicle” value ([1]; HU 75 mg/kg alone, WLS ANOVA estimate) was 0.59, the “percentage of bone marrow cells expressing the erythroid cell marker glycophorin A” value ([1]; alone or in combination with I-73) was “dose-dependent increase” and the “percentage of HbF protein by HPLC in GlyA-positive bone marrow cells” value ([1]; compared with vehicle treatment group, FIG. 7) was “significant increase”. The “percentage of bone marrow cells expressing human CD45” value ([1]; in vivo) was “did not alter”, the “HbF level on a per erythroid progenitor (GlyA-positive) cell basis by AlphaLISA” value ([1]; treatment alone) was “less HbF induction” and the “induction of fetal hemoglobin protein (HbF)” value [2] was “demonstrated to induce”. The “induction of fetal hemoglobin protein (HbF)” value ([2]; listed as Hydroxyurea) was “significantly induces”, the “induction of fetal hemoglobin mRNA (HBG1)” value [3] was “demonstrated to induce” and the “induction of fetal hemoglobin mRNA (HBG1)” value ([3]; listed as Hydroxyurea) was “significantly induces”.
